Reference: article PMC7486940, “Pre-symptomatic Caspase-1 inhibitor delays cognitive decline in a mouse model of Alzheimer disease and aging” (Nature Communications, 2020)

Legend:
Iba1-positive microglia = Iba1-positive microglia quantification and morphology (immunohistochemistry); type: in vivo, mouse
Protocol: (§1) VX-765 (Adooq Bioscience, Irvine, CA, USA) was dissolved 5 mg • ml^−1 in 20% cremophor in dH2O[60] (Sigma-Aldrich, ON, Canada) and administered IPWT and J20 mice received three injections per week of either 50 mg • kg^−1 VX-765 or 20% cremophor vehicle for 4 weeks between 2 and 3 months of age. Mice were longitudinally followed starting 4 weeks after the last injection [4-week washout (WO)], then every other month at 12- and 20-week WO (6 and 8 months of age, respectively). Intermediate 8- and 16-week WO periods were also looked at with a smaller number of mice. After each WO period, animals were randomly chosen, independent of behavioural performance, for sacrifice and assigned to either histological or biochemical analysis (Fig. 2a).
(§2) Mice for immunohistochemistry were isoflurane anesthetized and perfused with ice-cold 4% paraformaldehyde in 0.1 M PBS (Sigma-Aldrich). Brains were post-fixed overnight in 10% neutral-buffered formalin (ThermoFisher Scientific, ON, Canada) and transferred to 70% ethanol for paraffin embedding and sectioning at 4 μm. Tissue slides underwent heat-induced antigen retrieval with citrate or EDTA buffer. Immunostaining was performed using the Dako Autostainer Plus slide processor and EnVision Flex system (Dako, ON, Canada). Sections were peroxidase treated, blocked in Serum-Free Protein Block, and immunostained with the following antibodies: 1:2000 rabbit anti-Iba1 (Wako, VA, USA), 1:500 rat anti-CD68 (clone FA-11, Bio-Rad, Hercules, CA, USA), 1:8000 rabbit anti-GFAP (Dako) and 1:2000 rabbit anti-Aβ1-40 (F25276, laboratory developed). CD68 antibody required an additional rabbit anti-rat IgG/HRP secondary reagent (Dako) incubation. […] Sections were digitally scanned with MIRAX SCAN (Zeiss, ON, Canada) and used for subsequent analyses.
(§3) Iba1-positive microglia were quantified using a modified version of an area-specific counting frame. The number of Iba1-positive cells per mm^3 in the anterior CA1 region and cortex was estimated across four sections, spaced 60 μm apart. Microglial activation level was determined based on morphological measurements[19],[41]. Aβ1-40 and GFAP immunostaining density was measured across four sections using ImageJ software (NIH, Bethesda, MD, USA). Quantification was blinded to treatment and genotype.

CD68 = CD68 immunostaining of phagocytic microglia and macrophages; type: in vivo, mouse; details: VX-765-treated J20; 20-week WO; no staining in any vehicle-treated J20
Protocol: as §1
Mice for immunohistochemistry were isoflurane anesthetized and perfused with ice-cold 4% paraformaldehyde in 0.1 M PBS (Sigma-Aldrich). Brains were post-fixed overnight in 10% neutral-buffered formalin (ThermoFisher Scientific, ON, Canada) and transferred to 70% ethanol for paraffin embedding and sectioning at 4 μm. Tissue slides underwent heat-induced antigen retrieval with citrate or EDTA buffer. Immunostaining was performed using the Dako Autostainer Plus slide processor and EnVision Flex system (Dako, ON, Canada). […]

[1] = test system: Nlrp1, Nlrp3, Asc, Casp1, Casp6, Casp11, Casp3; experiment: inflammasome and caspase expression (PCR, Casp1 western blot); type: in vivo, mouse
Protocol: as §1
Twenty to sixty micrograms of protein or 16 μl of precipitated protein from culture medium were separated on SDS-PAGE or 4–12% NuPAGE Bis-Tris gels (Invitrogen, Carlsbad, CA, USA) with MES buffer (Invitrogen) and transferred onto PVDF membranes (Bio-Rad) according to the manufacturer’s instructions. Membranes were probed with the following antibodies: 1:1000 mouse anti-Aβ1-16 (6E10) (BioLegend, CA, USA), 1:2000 rabbit anti-APP C-terminus (A8717) (Sigma-Aldrich), 1:1000 rabbit anti-neprilysin (Nep, Abcam, ON, Canada), 1:500 rabbit anti-insulin degrading enzyme (IDE, Abcam), 1:3000 rabbit anti-GFAP (Dako), 1:1000 rabbit anti-IL-1β (Abcam), 1:1000 rat anti-Caspase-1 (clone 4B4.2.1, kindly provided by Genentech, San Francisco, CA, USA) and 1:1000 mouse anti-β-actin (Sigma-Aldrich). […] Signals were visualized with the ImageQuant LAS 4000 imaging system and densitometric analyses were performed with Image Gauge analysis software 3.0 (Fujifilm USA, NY, USA). Protein extracts from three independent mice in each group were run together on each blot. Protein levels were normalized to β-actin and expressed as a percentage relative to the vehicle-treated WT group, except for APP which was compared to the vehicle-treated J20 group. Representative full blots are shown in the Source data file. […]

Aβ = Aβ immunostaining density and ELISA (RIPA- and FA-soluble); type: in vivo, mouse
Protocol: as §1, §2, §3
ELISA samples were prepared in RIPA described above. RIPA-insoluble pellets were further extracted in 70% formic acid (FA) in dH2O. FA was evaporated in a speed vacuum, and the resulting pellet was solubilized in 200 mM Tris-HCl, pH 7.5. IL-1β and Aβ levels (which include Aβ38, Aβ40 and Aβ42) were measured using Meso Scale Discovery ELISA kits (Rockville, MD, USA). Standards and samples were prepared according to the manufacturer’s protocols and run in duplicate.

[2] = female, C57BL/6J, mouse, in vivo, ip, 50 mg/kg, 0.25 h
Protocol: Plasma, whole brain and CSF concentrations of VX-765 and its active metabolite, VRT-043198, were determined by LC-MS/MS at Paraza Pharma (Montreal, QC, Canada). Fourteen C57BL/6J female mice received a single IP dose of 50 mg · kg^−1 VX-765 and 2 mice per time point were euthanized at 0.25, 0.5, 1, 3, 6, 8 and 24 h post-injection. Mice were isoflurane anesthetized to collect CSF and perform a cardiac puncture followed by whole body perfusion with PBS. Plasma samples were extracted 1:1 in spiking solution and internal standard solution containing 0.1 μM glyburide in acetonitrile. Brain and CSF samples were extracted 1:1 in spiking solution and internal standard solution containing 0.2 μM labetalol in 50:50 methanol:acetonitrile. Samples were centrifuged at 4000 × g for 10 min at 4 °C, the plasma supernatant diluted 1:1 and the brain and CSF supernatant diluted 1:2 in H2O, and 5 μl was injected into a Quantis LC-MS/MS system for analysis.

[3] = cited from earlier work
[4] = set-up: method as in PMID 30254377; details: cited from earlier work
Casp11 = test system: Casp11; set-up: method as in Flores et al., Nature Communications 2018; details: ref Flores et al., Nature Communications 2018; cited from earlier work
CD4 T-cell = test system: CD4 T-cell; set-up: method as in PMID 24356306; details: HIV; cited from earlier work
[5] = test system: experimental allergic encephalitis multiple sclerosis mouse model; set-up: method as in PMID 29895691; details: cited from earlier work
alpha-synuclein = test system: alpha-synuclein; set-up: method as in PMID 27482083; details: in vitro; cited from earlier work
[6] = test system: proteolipid protein-synuclein mouse model; set-up: method as in PMID 27482103; details: proteolipid protein-synuclein mouse model of multiple systems atrophy; cited from earlier work

For `CCO[C@@H]1OC(=O)C[C@@H]1NC(=O)[C@@H]1CCCN1C(=O)[C@@H](NC(=O)c1ccc(N)c(Cl)c1)C(C)(C)C` [VX-765, (S)-1-((S)-2-{[1-(4-amino-3-chloro-phenyl)-methanoyl]-amino}-3,3-dimethyl-butanoyl)-pyrrolidine-2-carboxylic acid ((2R,3S)-2-ethoxy-5-oxo-tetrahydro-furan-3-yl)-amide], the “type III, amoeboid-appearing, microglia” value (Iba1-positive microglia; J20, 20-week WO) was “significantly higher in vehicle- and VX-765-treated J20 mice at 20-week WO”, the “duration of reduced microglial activation” value (Iba1-positive microglia; J20 cortex) was ≤ 5 months and the “duration of reduced microglial activation” value (Iba1-positive microglia; J20 hippocampus) was “up to 4 months”. For the same molecule, the “microglial morphological profile (type I resting / type II activated)” value (Iba1-positive microglia; J20 hippocampus and cortex) was “reverted the profile in J20 mice back to a near WT profile at 4-week WO, but it slowly shifted from a resting to an activated state morphologically similar to vehicle-treated J20 mice from 12-week WO onwards”, the Iba1-positive microglia numbers (Iba1-positive microglia; J20 hippocampus and cortex, all WO periods) was “prevented this increase, normalizing Iba1-positive numbers to near WT levels, although numbers did not reach significance in the hippocampus at 8- and 20-week WO” and the “type IV microglia” value (Iba1-positive microglia; J20 hippocampus, 20-week WO) was “elevated in the hippocampus of VX-765-treated J20 mice at 20-week WO”. The “mice with CD68 positive staining” value (CD68) was “four out of the five”, the “full-length Casp1 levels (western blot)” value ([1]; J20 cortex, 20-week WO) was “reduced full-length Casp1 levels slightly compared to vehicle-treated J20 mice, but this did not reach statistical significance” and the “Casp1, Casp6, Casp11 and Casp3 hippocampal mRNA levels” value ([1]; hippocampus) was “no differences were observed”. For the same molecule, the “Nlrp1, Nlrp3 and Asc hippocampal mRNA levels” value ([1]; hippocampus, vehicle WT, vehicle J20, VX-765 J20) was “did not differ between the three treatment groups at any of the WO periods”, the “FA-soluble Aβ42 levels, Aβ42/total Aβ ratio, cortical Aβ subtypes” value (Aβ; J20, 20-week WO) was “did not affect hippocampal Aβ42 levels and Aβ42/total Aβ ratio, or any Aβ subtype in the cortex” and the Aβ staining density (Aβ; J20 hippocampus and cortex, vs vehicle) was “significantly decreased Aβ staining density only in the cortex at 12-week WO”. For the same molecule, the “RIPA-soluble Aβ38, Aβ40, Aβ42 or total Aβ levels” value (Aβ; J20 hippocampus or cortex, all WO periods, vehicle vs VX-765) was “no significant differences”, the “formic acid (FA)-soluble total Aβ levels” value (Aβ; J20 hippocampus or cortex, any WO period) was “did not differ between vehicle and VX-765 treatment” and the “FA-soluble hippocampal Aβ38 and Aβ40 levels” value (Aβ; J20 hippocampus, 20-week WO) was “increased FA-soluble hippocampal Aβ38 and Aβ40 levels at 20-week WO”. For the same molecule, the “RIPA-soluble Aβ42/total Aβ ratio” value (Aβ; J20 hippocampus, 20-week WO) was “significantly higher in vehicle- compared to VX-765-treated hippocampus in J20 mice at 20-week WO”, the “CSF concentration relative to respective in vitro Casp1 IC50” value [2] was 100 fold and the “brain concentration relative to respective in vitro Casp1 IC50” value [2] was 50 fold. For the same molecule, the “plasma concentration relative to respective in vitro Casp1 IC50” value [2] was 100 fold, the “in vitro half-life (t1/2)” value [3] was ~ 157 h and the “concentration in the J20 brain” value ([4]; 50 mg/kg dose of VX-765, carotid infusion, J20 mice) was 2000 to 5000 nM. The “blood–brain barrier permeability” value [4] was “blood–brain barrier permeable”, the “IC50 for Casp11 compared to Casp1” value (Casp11) was “over 100 fold” and the “inflammation, CD4 T-cell death and pyroptosis” value (CD4 T-cell) was “reduce inflammation by suppressing CD4 T-cell death and pyroptosis in HIV”. The “inflammasome-related gene expression, axonal injury, behaviour” value [5] was “reduce inflammasome-related gene expression, axonal injury, improve behaviour”, the alpha-synuclein toxicity (alpha-synuclein) was “protect against alpha-synuclein toxicity” and the alpha-synuclein toxicity [6] was “protect against alpha-synuclein toxicity”.
